Experiments:
[1] = Inhibition of PI3Kalpha H1047R mutant in human HCT116 cells assessed as cell growth inhibition after 24 hrs by MTT assay
[2] = Inhibition of PI3Kalpha in human HCT116 cells assessed as cell growth inhibition after 24 hrs by MTT assay

| Compound | IC50 [1] [mM] | IC50 [2] [mM] |
| --- | --- | --- |
| COc1ccc(C(=O)C(O)c2ccc(OC)cc2)cc1 (stereo not drawn) [2-hydroxy-1,2-bis(4-methoxyphenyl)ethan-1-one] | 1.17 | 1.17 |
| O=C(OC(C(=O)c1ccccc1)c1ccccc1)c1ccccc1 (stereo not drawn) | 2.66 | 2.66 |
| COc1ccc(C(=O)C(OC(=O)c2ccc(F)cc2)c2ccc(OC)cc2)cc1 (stereo not drawn) | 2.82 | 2.82 |
| O=C(c1ccccc1)C(O)c1ccccc1 (stereo not drawn) | 2.12 | 2.12 |
| O=C(OC(C(=O)c1ccccc1)c1ccccc1)c1ccc(F)cc1 (stereo not drawn) | 1.29 | 1.29 |

Stronger by IC50 [1], values ahead:

| IC50 [1] [mM] | IC50 [2] [mM] | Compound |
| --- | --- | --- |
| 0.73 | 0.73 | O=C(OC(C(=O)c1ccccc1)c1ccccc1)c1ccc(Cl)cc1 (stereo not drawn) |
| 0.91 | 0.91 | O=C(OC(C(=O)c1ccccc1)c1ccccc1)c1ccccc1F (stereo not drawn) |
| 0.97 | 0.97 | O=C(OC(C(=O)c1ccccc1)c1ccccc1)c1cccc(F)c1 (stereo not drawn) |
| 0.88 | 0.88 | O=C(OC(C(=O)c1ccccc1)c1ccccc1)c1ccc([N+](=O)[O-])cc1 (stereo not drawn) |
